From US12358959B2, “Compositions and methods for oligodendrocyte development” (CHILDREN'S MEDICAL CENTER CORPORATION, priority 2016, dated 2025)

What was measured:
[1] = target: T1, GPR56^N (Mus musculus, UniProt Q8K209); test: In vitro biotinylation/proteomics pull-down from mixed glial cell lysate with mass spectrometry; settings: peptide sequences specific for binding to GPR56^N
T1 construct: Using the soluble N-terminal fragment of GPR56 (GPR56^N); made in house
Source text: To identify the ligand of GPR56 in OPCs, an in vitro biotinylation/proteomics approach was employed using single-step capture on streptavidin beads to purify the binding partner(s) of GPR56 (FIGS. 2A-2B). Proteins with more than five identified tryptic peptides in the Mass Spectrometry (MS) output from three independent experiments are listed at Table 1.
(§1) GPR56^N and GPR56^Ndel fusions proteins with either mFc or hFc tag were generated as previously described (Luo et al. Proc Natl Acad Sci USA 108, 12925-12930, 2011). BirA enzyme was used to in vitro biotinylate GPR56^N-mFc-biotag protein as previously described (De Laurenzi and Melino Mol Cell Biol 21, 148-155, 2001). Mixed glial cell lysate was incubated with biotinylated GPR56^N protein in lysis buffer [20 mM Hepes (pH 7.3), 150 mM NaCl, and 5 mM MgCl2] with protein inhibitor mixture (Roche Molecular Biochemicals) and 1% Brij 96 (Fluka). Streptavidin beads (Sigma) were used to affinity purify immunocomplexes. GPR56-associated proteins were eluted in 2×SDS loading buffer, subjected to SDS/PAGE. The whole lane was used for MS at the Taplin Biological Mass Spectrometry at Havard Medical School. MS data were searched against the mouse International Protein Index (IPI mouse 339) database using the protein identification software Mascot (v2.2.04, Matrix Sciences) (Luo et al. Proc Natl Acad Sci USA 108, 12925-12930, 2011).
as §1, with “al.,” for “al.”, “(Stacey et al., J” for “(De Laurenzi and Melino Mol Cell”, “Chem 277, 29283-29293, 2002).” for “21, 148-155, 2001).”, “(20” for “[20”, “[pH 7.3],” for “(pH 7.3),”, “MgCl2)” for “MgCl2]”

[2] = tested on: oligodendrocyte precursors (OPCs); test: OPC proliferation on laminin-111 or fibronectin with recombinant TG2; type: cell-based, mouse
Source text: P=0.70 (control vs. TG2-W241A); **P=0.0088 (TG2 vs. TG2-W241A). […] FIG. 16D depicts a Western blot of active RhoA (top panel) and total RhoA (bottom panel) in the corpus callosum (CC) of Tgm2^+/+ and Tgm2^−/− mice. FIG. 16E is a graph showing that the relative level of active RhoA to total RhoA was diminished in the CC of Tgm2^−/− mice compared to […]. *P=0.0207, unpaired t-test, N=3 per genotype. FIG. 16F depicts a Western blot of GPR56^N in the supernatant of HEK 293T cell culture after exposed to either TG2 or TG2+laminin-111 (top panel), GTP-RhoA (middle panel) and total RhoA (lower panel) in HEK 293T cell pellet exposed to either TG2 or TG2+laminin-111. FIG. 16G is a graph showing that released GPR56 NTF was increased in the presence of both TG2 and laminin-111. ***P=0.0002; One-way ANOVA followed by Tukey post-hoc test, F (2,6)=49.66, n.s. P=0.95 (control vs. TG2); ***P=0.0003 (control vs. TG2+laminin-111); ***P=0.0004 (TG2 vs. TG2+laminin-111); N=3 per treatment group. FIG. 16H is a graph showing that the relative level of GTP-RhoA to total RhoA was increased in the presence of both TG2 and laminin-111, corresponding to the increased GPR56 NTF in the supernatant. **P=0.0028; One-way ANOVA followed by Tukey post-hoc test, F (2,6)=18.19, n.s. P=0.75 (control vs. TG2); **P=0.0035 (control vs. TG2+laminin-111); **P=0.0071 (TG2 vs. TG2+laminin-111) N=3 per treatment group. Error bars are mean±s.e.m in FIGS. 16E, 16G, and 16H.
To establish conditions for mechanistic investigation of the function of TG2 on OPC GPR56 during myelination and remyelination, in vitro experiments were performed with wt and Gpr56^−/− oligodendrocyte precursors (OPCs) and human recombinant TG2. […] TG2 is an extracellular protein with intrinsic transamidation activity, capable of cross-linking ECM proteins, including laminin-111 (Aeschlimann et al., J Biol Chem 267, 11316-11321, 1992; Belkin, FEBS J 278, 4704-4716, 2011). […] To confirm that TG2 regulates OPC proliferation in a GPR56-dependent manner, OPCs derived from P5 Gpr56^+/+ or Gpr56^−/− pups were cultured in the presence of laminin-111, with or without recombinant TG2. TG2-associated proliferation was attenuated in Gpr56^−/− OPCs (FIG. 16C), further supporting a GPR56-dependent TG2 function on OPC proliferation.
Oligodendrocyte precursor cells (OPCs) were isolated from mixed male and female P5-8 Gpr56^+/+ or Gpr56^−/− mouse forebrains as previously described (Wang et al., Neuron 29, 603-614, 2001; Watkins et al., Neuron 60, 555-569, 2008). Briefly, OPCs were purified by negatively selecting with mouse anti-Thy 1.2 (Serotec, Cat #MCA02R) and mouse anti-GalC (Millipore, Cat #MAB342), followed by mouse anti-04 (04 hybridoma supernatant) for positive selection. After releasing OPCs from the 04 plate by trypsinization, cells were resuspended in proliferation media containing PDGF-AA and NT-3 (PreproTech). OPCs were plated on coverslips coated with poly-D-lysine before coating with laminin I (R&D Systems, Cat #3400-010-01) or fibronectin (Millipore, Cat #341668) as previously described (Dugas et al., J Neurosci 26, 10967-10983, 2006). After 24 hr, TG2 (2 nM) was added to the cultures and incubated for an additional 24 hr before fixation with 4% PFA and staining for PDGFRα and Ki67.

T1 sequence (Q8K209 26-382 limits assumed): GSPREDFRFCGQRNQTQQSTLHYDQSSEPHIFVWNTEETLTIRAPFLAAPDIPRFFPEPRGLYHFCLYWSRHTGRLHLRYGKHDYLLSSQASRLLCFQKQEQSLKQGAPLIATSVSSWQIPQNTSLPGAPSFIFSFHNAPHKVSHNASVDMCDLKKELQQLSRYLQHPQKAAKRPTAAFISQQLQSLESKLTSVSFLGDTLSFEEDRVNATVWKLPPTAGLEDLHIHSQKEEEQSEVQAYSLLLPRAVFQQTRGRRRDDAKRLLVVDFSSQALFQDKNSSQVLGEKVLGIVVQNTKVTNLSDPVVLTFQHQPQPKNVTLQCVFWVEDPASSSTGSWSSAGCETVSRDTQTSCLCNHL

Substance: Transglutaminase 2 [TG2]
- Peptide Number (Exp1) ([1]; experiment 1): 19
- Peptide Number (Exp2) ([1]; experiment 2): 20
- Peptide Number (Exp3) ([1]; experiment 3): 17
- OPC proliferation ([2]; Gpr56−/− OPCs, in the presence of laminin-111, with recombinant TG2): attenuated
- OPC proliferation ([2]; Gpr56−/− OPCs, in the presence of laminin-111, with recombinant TG2, listed as recombinant TG2): failed to respond
- OPC proliferation, wild type TG2 vs enzymatic dead mutant ([2]; versus control, One-way ANOVA, Tukey post-hoc): stimulated OPC proliferation
- OPC proliferation ([2]; wt OPCs, basal condition (no laminin-111), TG2 2 nM, 24 hr): failed to augment
- OPC proliferation ([2]; wt OPCs, in the presence of laminin-111, TG2 2 nM, 24 hr): stimulated OPC proliferation
- OPC proliferation ([2]; wt OPCs, in the presence of laminin-111, TG2 2 nM, 24 hr, listed as recombinant TG2): significantly increased
